From patent US20200370076A1, “USE OF GALACTURONATE AND OR GALACTURONATE POLYMERS IN CONJUNCTION WITH CARBOHYDRATES TO CONTROL METABOLIC STATE OF ORGANISMS” (Department of the Army, U.S. Army CCDC Army Research …, priority 2019, published 2020) come the findings set out here.

The subject of experiment [1] is Clostridium acetobutylicum. In words: Substrate concentration over time during co-fed fermentation (FIG. 4). It is filed as cell-based. The text has this: FIG. 4 is a graph illustrating the uptake of individual oxidized sugars mixed for co-feeding during a fermentation process of Clostridial acetobutylicum; FIG. 4, with reference to FIGS. 1 through 3, is a graph illustrating the concentration of various feedstock during a fermentation process. […] The co-utilization of any of galacturonate and galacturonate polymers with glucose could be used to control the metabolic state of the cells by altering the production of reduced electron carriers such as NADH and/or NADPH. This can allow for fine-tuning production of chemicals. The overall trend of the concentration over time shown in FIG. 4 for galacturonic (gal) acid and glucose (glu) is generally the same; i.e., a gradual decrease in the concentration over time. For example, the concentration of the galacturonic acid is approximately 7.5 at time 0 with a gradual decline in concentration to approximately 4 at approximately 3 hours, followed by a greater decline in concentration resulting in a 0 concentration at approximately 7 hours.

Experiment [2] has as its system Clostridium acetobutylicum. The experiment in a line: Fermentation product formation by Clostridium acetobutylicum grown on different substrates. The class given is cell-based. The conditions noted are these: organism grown on the named substrate. The procedure:
Experimentally, mixtures of any of galacturonate and galacturonate polymers with glucose are fed to Clostridium acetobutylicum. It was observed that the organism co-utilized the substrates. […] Bacterial culture conditions and strains have been previously published. […] Clostridium acetobutylicum strain ATCC 824 was obtained from ATCC and cultured using company protocol at 37° C. into Clostridial growth medium or CGM containing 0.75 g KH2PO4, 0.75 g K2HPO4, 1.0 g NaCl, 0.017 g MnSO4.5H2O, 0.70 g MgSO4.7H2O, 0.01 g FeSO4.7H2O, 2.0 g […], 5.0 g yeast extract, 2.0 g (NH4)2SO4, and 0.5% final concentration of desired carbohydrate-D-glucose, D-galacturonic acid, D-gluconic acid-at pH 6.5. Active cultures from initial growth stock were added to potato glucose medium to be maintained and stored as a spore solution. Potato glucose medium or PGM contains per liter of H2O-150 g grated fresh potato, 10 g D-glucose, 0.5 g (NH4)SO4, and 3 g CaCO3. The medium was boiled for 1 hour and strained through gauze before sterilization and use for culture. Spore solution was activated for culturing through a heat shock at 80° C. for 9 minutes. Shocked spore solution was added to CGM containing the feed stock of choice and grown to late log of 0.8 at optical density of 600 nm (OD600) at 37° C. Theses cultures were then used to perform antibiotic sensitivity experiments.

With `O=C[C@H](O)[C@@H](O)[C@@H](O)[C@H](O)C(=O)O` [galacturonate, D-galacturonic acid], the “concentration of feedstock during fermentation” value in experiment [1] (FIG. 4, approximately 3 hours) is on record as “approximately 4”; in experiment [1] (FIG. 4, approximately 7 hours), 0; in experiment [1] (FIG. 4, glucose/galacturonate co-feeding, time 0), “approximately 7.5”. For the same compound, the acetate produced result in experiment [2] was “approximately 23.6 mM”. For the same compound, in experiment [2], the butyrate produced result was “approximately 0.6 mM”.
